Reference: patent US20220073496A1, “NOVEL QUINOLINE DERIVATIVE INHIBITOR” (Nanjing Transthera Biosciences Co., Ltd., priority 2018, published 2022)

Tests used:
H1299 cell pAxl = target: T1, H1299 cell pAxl (Homo sapiens, UniProt P30530); experiment: Inhibitory activity on the cell pAxl (Western Blot); type: cell-based; details: H1299 cells, compound 1.1, 3.3, 10, 30 nM, hGAS6 200 ng/mL
T1 construct: endogenous in cells; host or cells: H1299
T1 sequence (P30530 26-894): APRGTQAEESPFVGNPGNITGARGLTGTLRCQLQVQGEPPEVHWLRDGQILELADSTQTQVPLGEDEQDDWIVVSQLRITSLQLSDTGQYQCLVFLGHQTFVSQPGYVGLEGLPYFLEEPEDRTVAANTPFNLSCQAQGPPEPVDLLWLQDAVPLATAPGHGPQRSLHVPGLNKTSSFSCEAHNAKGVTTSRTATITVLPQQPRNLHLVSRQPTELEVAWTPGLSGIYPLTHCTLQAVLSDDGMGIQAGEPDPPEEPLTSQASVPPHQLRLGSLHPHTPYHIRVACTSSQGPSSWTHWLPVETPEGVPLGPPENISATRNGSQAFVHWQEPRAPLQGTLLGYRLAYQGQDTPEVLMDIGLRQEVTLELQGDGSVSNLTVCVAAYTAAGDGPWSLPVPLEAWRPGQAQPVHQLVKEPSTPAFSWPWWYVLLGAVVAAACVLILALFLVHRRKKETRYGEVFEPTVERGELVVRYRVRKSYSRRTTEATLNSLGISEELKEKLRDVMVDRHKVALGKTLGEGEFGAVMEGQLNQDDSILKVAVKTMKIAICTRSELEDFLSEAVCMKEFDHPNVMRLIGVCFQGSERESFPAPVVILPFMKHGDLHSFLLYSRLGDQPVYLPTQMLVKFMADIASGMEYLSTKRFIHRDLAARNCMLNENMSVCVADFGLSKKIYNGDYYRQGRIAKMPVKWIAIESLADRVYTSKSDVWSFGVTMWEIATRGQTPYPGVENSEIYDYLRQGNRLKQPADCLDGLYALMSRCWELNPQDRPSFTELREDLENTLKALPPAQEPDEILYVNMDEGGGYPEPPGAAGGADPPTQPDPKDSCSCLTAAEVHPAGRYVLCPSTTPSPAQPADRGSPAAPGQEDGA
Protocol: Assay 5: Test for Inhibitory Activities of the Compounds of the Present Invention on the Cell pAxl
H1299 is a non-small cell lung cancer cell.
Test substances: the compounds of the present invention, wherein the structures thereof were as described above.
Test equipment: protein electrophoresis apparatus (manufactured by Bio Rad), transfer unit (manufactured by Bio Rad), exposure unit (manufactured by Tanon), CO2, cell incubator (manufactured by Thermo).
The H1299 cells were inoculated in a 6-well plate (containing 10% FBS 1640 medium, 5×10^5 cells per well), and adherent cells were cultivated at 37° C. in a 5% CO2 condition for 18 hours. The cells were starved overnight. Different concentrations of compounds were added. The final compound concentrations were 1.1, 3.3, 10, and 30 nM, and the final DMSO content was 1‰. The negative control wells contained the medium containing 1‰ DMSO. After incubating at 37° C. in a 5% CO2 condition for 60 minutes, hGAS6 (R&D, final concentration 200 ng/mL) was added to each well. After further incubating for 60 minutes, the cell total protein was extracted for Western Blot and the […] values were calculated using GraphPad 5.0 software. The inhibitory activity of the compound on the cell pAxl was examined.

[1] = Stability in liver microsome of mice; type: in vitro ADME; details: liver microsomes; Mouse liver microsome 0.5 mg protein/mL, compound 1 μM, 37° C.
Protocol: (§1) Assay 1: Stability assessment of the compounds of the present invention in liver microsome of mice and dogs
(§2) Test substances: the compounds of the present invention, wherein the structures and preparations thereof were as described above.
(§3) The composition of the incubation system:
(§4) Preparation of Test Substances:
(§5) An appropriate amount of the compound was accurately weighed and dissolved in DMSO to prepare a 5.0 mM stock solution. The 5.0 mM stock solution was diluted to 1.0 mM with DMSO, and finally diluted with water to a 10 μM test substance working solution for use (the DMSO content in the reaction system was 0.1%).
(§6) (1) The liver microsome (20 mg protein/mL) was taken out from the −80° C. refrigerator, pre-incubated at 37° C. with a water-bathing constant temperature vibrator for 3 minutes, and melted for use.
(§7) (2) A mixed solution of the incubation system (excluding compounds and β-NADPH) according to the above “composition of the incubation system” for the assay was prepared, and pre-incubated at 37° C. with a water-bathing constant temperature vibrator for 2 minutes.
(§8) (3) Control group (excluding β-NADPH): 30 μL of water and 30 μL of compound working solution (10 μM) were added to 240 μL of the mixed solution of the incubation system of step (2), and vortexed for 30 seconds to mix well. The total reaction volume was 300 μL. A duplicate sample was prepared. The sample was incubated at 37° C. with a water-bathing constant temperature vibrator. The timekeeping began and the sampling time points were set at 0 minute and 60 minutes.
(§9) (4) Sample group: 70 μL of β-NADPH solution (10 mM) and 70 μL of compound working solution (10 μM) were added to 560 μL of the mixed solution of step (2). The total reaction volume was 700 μL. The resulting mixture was vortexed for 30 seconds to mix well. A duplicate sample was prepared. The sample was incubated at 37° C. with a water-bathing constant temperature vibrator. The timekeeping began and the sampling time points were set at 0 minute, 5 minutes, 10 minutes, 20 minutes, 30 minutes, and 60 minutes after timekeeping.
(§10) (5) After vortexing for 3 minutes, the sample was centrifuged at 4000 rpm for 10 minutes.
(§11) (6) 50 μL of the supernatant was taken and 150 μL of water was added. The resulting mixture was vortexed to mix well, and analyzed by LC/MS/MS.
(§12) The half-life (t1/2) and clearance rate (Cl) were calculated using the following first-order kinetic formula:
(§13) Vd=1/protein content in liver microsome
(§14) Note: k was the slope of the logarithm of the remaining amount of the compound versus time, and Vd was the apparent distribution volume.

[2] = Stability in liver microsome of dogs; type: in vitro ADME; details: liver microsomes; Dog liver microsome 0.5 mg protein/mL, compound 1 μM, 37° C.
Protocol: as §1, §2, §3, §4, §5, §6, §7, §8, §9, §10, §11, §12, §13, §14

- IC50 (H1299 cell pAxl): 3.3 to 10 nM
- half-life at 1 μM [1]: 2.13 h
- microsomal CLint at 1 μM [1]: 10.8 µL/min/mg
- half-life at 1 μM [2]: 3.73 h
- microsomal CLint at 1 μM [2]: 6.2 µL/min/mg
Compound: COc1cc2nccc(Oc3ncc(NC(=O)c4cn(C5CC5)nc(-c5ccc(F)cc5)c4=O)cn3)c2cc1OC [Compound 44, 2-cyclopropyl-N-(2-((6,7-dimethoxyquinolin-4-yl)oxy)pyrimidine-5-yl)-6-para-fluorophenyl-5-oxo-2,5-dihydropyridazine-4-carboxamide]
